Legend:
[1] = test system: IRF3 nuclear translocation; test: Nuclear fractionation assay, IRF3 in poly (I:C) treated Pam212 cells; type: cell-based, mouse
Description: Pam212 cell line was transfected with poly (I:C) using Lipofectamine 2000 according to the manufacturer's instructions. After 8 hours, cells were lysed using Nuclear Extraction Kit (Novus biologicals, Littleton, Colo., catalog no. NBP2-29447). Briefly, cells were washed with 1×PBS supplemented with PMSF (Novus biologicals, catalog no. KC-407). Cells were centrifuged for 5 min at 1,000 rpm. Cell pellets were resuspended in 1× cold hypotonic buffer (Novus biologicals, catalog no. KC-401) and incubated on ice for 15 min. After adding 10 μL of the 10% detergent solution (Novus biologicals, catalog no. KC-403), cell lysates were centrifuged 10 min at 14,000 rpm. The supernatants were kept as cytoplasmic fraction and the cell pellets were resuspended in 100 μL nuclear lysis buffer (Novus biologicals, catalog no. KC-402). Lysates from the pellets were sonicated for few seconds and incubated for 10 min at 4° C. Then, lysates were centrifuged at 14,000 rpm for 10 min. The supernatants were kept as nuclear fraction.
Next, to investigate the mechanism by which pitavastatin can block IL-33 expression, we first confirmed p-IRF3 expression level because IRF3 is a transcription factor of IL-33 expression. […] However, pitavastatin treatment with Poly (I:C) to Pam212 cells, level of p-IRF3 was decreased (FIG. 11A). […]

[2] = test system: Caerulein-injected mouse pancreas; test: Caerulein chronic pancreatitis model with pitavastatin; type: in vivo
Description: Mice were weighed and injected with 50 μg/kg caerulein (BACHEM, Torrance, Calif., catalog no. 4030451) in 100 μL of PBS intraperitoneally every hour for 6 hours, three days per week for 3 weeks and mice were harvested.
1 mM of pitavastatin was dissolved in DMSO for stock, and then 100 uM was dissolved in PBS with caerulein for mice injection. Mice were injected with caerulein.
Tissue samples were collected and fixed in 4% paraformaldehyde (Millipore Sigma, catalog no. P6148) overnight at 4° C. Next, tissues were dehydrated in ethanol, processed and embedded in paraffin. 5 μm sections paraffin-embedded tissues were placed on slides, deparaffinized and stained with H&E or toluidine blue (for mast cell detection). For immunohistochemistry, antigen retrieval was performed in 500 μL of antigen unmasking solution (VECTOR Laboratories, Burlingame, Calif., catalog no. H3300) diluted in 50 mL water using Cuisinart pressure cooker for 20 min at high pressure. Slides were washed three times for three minutes each in 1×TBS with 0.025% Triton X-100. Sections were blocked with 1% bovine serum albumin (Thermo Fisher Scientific, catalog no. BP1600) and 5% goat serum (Millipore Sigma, catalog no. G9023) for 1 hour. Slides were stained overnight at 4° C. with a primary antibody diluted in TBS containing 1% BSA (Appendix Table S2). […]

Compound: O=C(O)C[C@H](O)C[C@H](O)/C=C/c1c(C2CC2)nc2ccccc2c1-c1ccc(F)cc1 [pitavastatin]
- IRF3 localization by nuclear fractionation [1]: remains IRF3 in cytoplasm
- severity of pancreatitis ([2]; 100 uM pitavastatin in PBS injected with caerulein, vs severe pancreatitis in caerulein plus carrier): mild pancreatitis
- inflammatory cell infiltrates in pancreas (H&E) ([2]; Caerulein-injected mouse pancreas with or without pitavastatin): reduction

From patent US20230255954A1, “INTERLEUKIN 33 (IL-33) INHIBITION FOR TREATMENT OF CANCER, FIBROSIS AND INFLAMMATION” (The General Hospital Corporation, priority 2020, published 2023)
